Data published in PubChem BioAssay (NCI).
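The compound was tested at five concentrations on cells cultured in 96-well plates, with a 48-hour exposure period. GI50: concentration for 50% inhibition of growth. Definition used: TGI = concentration required for complete inhibition of growth.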

Tests used:
Experiment in all cases: DTP human tumour cell line panel, 48 h
RPMI-8226 leukemia = test system: RPMI-8226 leukemia
NCI/ADR-RES ovarian = test system: NCI/ADR-RES ovarian
RXF 393 renal = test system: RXF 393 renal
OVCAR-4 ovarian = test system: OVCAR-4 ovarian
ACHN renal = test system: ACHN renal
CCRF-CEM leukemia = test system: CCRF-CEM leukemia
HT29 colon = test system: HT29 colon
HL-60(TB) leukemia = test system: HL-60(TB) leukemia
SW-620 colon = test system: SW-620 colon
KM12 colon = test system: KM12 colon
DU-145 prostate = test system: DU-145 prostate
NCI-H23 lung = test system: NCI-H23 lung
OVCAR-8 ovarian = test system: OVCAR-8 ovarian
SK-MEL-28 melanoma = test system: SK-MEL-28 melanoma
HCT-15 colon = test system: HCT-15 colon
NCI-H522 lung = test system: NCI-H522 lung
MDA-MB-435 = test system: MDA-MB-435
MCF7 breast = test system: MCF7 breast
OVCAR-5 ovarian = test system: OVCAR-5 ovarian
SR leukemia = test system: SR leukemia
T-47D breast = test system: T-47D breast
MOLT-4 leukemia = test system: MOLT-4 leukemia
786-0 renal = test system: 786-0 renal
A549 NSCLC = test system: A549 NSCLC
MDA-MB-231 breast = test system: MDA-MB-231 breast
MALME-3M melanoma = test system: MALME-3M melanoma
U251 CNS = test system: U251 CNS
HCC-2998 colon = test system: HCC-2998 colon
SK-OV-3 ovarian = test system: SK-OV-3 ovarian
A498 renal = test system: A498 renal
NCI-H226 lung = test system: NCI-H226 lung
K-562 leukemia = test system: K-562 leukemia
SF-539 CNS = test system: SF-539 CNS
SNB-19 CNS = test system: SNB-19 CNS
CAKI-1 renal = test system: CAKI-1 renal
PC-3 prostate = test system: PC-3 prostate
NCI-H460 lung = test system: NCI-H460 lung
UACC-257 melanoma = test system: UACC-257 melanoma
IGROV1 ovarian = test system: IGROV1 ovarian
UO-31 renal = test system: UO-31 renal
HS 578T breast = test system: HS 578T breast
UACC-62 melanoma = test system: UACC-62 melanoma
HOP-92 NSCLC = test system: HOP-92 NSCLC
SK-MEL-5 melanoma = test system: SK-MEL-5 melanoma
SF-295 CNS = test system: SF-295 CNS
SK-MEL-2 melanoma = test system: SK-MEL-2 melanoma
EKVX NSCLC = test system: EKVX NSCLC
COLO 205 colon = test system: COLO 205 colon
LOX IMVI melanoma = test system: LOX IMVI melanoma
SNB-75 CNS = test system: SNB-75 CNS
SF-268 CNS = test system: SF-268 CNS
TK-10 renal = test system: TK-10 renal
SN12C renal = test system: SN12C renal
BT-549 breast = test system: BT-549 breast
OVCAR-3 ovarian = test system: OVCAR-3 ovarian
HOP-62 NSCLC = test system: HOP-62 NSCLC

O=C(NN=C1CCCCC1)c1[nH]c2ccc(F)cc2c1-c1ccccc1
GI50 (RPMI-8226 leukemia): 40.5 µM | TGI (RPMI-8226 leukemia): > 100 µM | GI50 (NCI/ADR-RES ovarian): 23.7 µM | TGI (NCI/ADR-RES ovarian): 86.1 µM | GI50 (RXF 393 renal): 98.5 µM | TGI (RXF 393 renal): > 100 µM | GI50 (OVCAR-4 ovarian): 16.9 µM | TGI (OVCAR-4 ovarian): 69.4 µM | GI50 (ACHN renal): 42.6 µM | TGI (ACHN renal): > 100 µM | GI50 (CCRF-CEM leukemia): 17.7 µM | TGI (CCRF-CEM leukemia): > 100 µM | GI50 (HT29 colon): 20.9 µM | TGI (HT29 colon): 46.5 µM | GI50 (HL-60(TB) leukemia): 18.2 µM | TGI (HL-60(TB) leukemia): 52.7 µM | GI50 (SW-620 colon): 46.9 µM | TGI (SW-620 colon): > 100 µM | GI50 (KM12 colon): 44.7 µM | TGI (KM12 colon): > 100 µM | GI50 (DU-145 prostate): 92.2 µM | TGI (DU-145 prostate): > 100 µM | GI50 (NCI-H23 lung): 33.5 µM | TGI (NCI-H23 lung): > 100 µM | GI50 (OVCAR-8 ovarian): 51.4 µM | TGI (OVCAR-8 ovarian): > 100 µM | GI50 (SK-MEL-28 melanoma): 27.3 µM | TGI (SK-MEL-28 melanoma): > 100 µM | GI50 (HCT-15 colon): 15.6 µM | TGI (HCT-15 colon): 50.9 µM | GI50 (NCI-H522 lung): 44.1 µM | TGI (NCI-H522 lung): > 100 µM | GI50 (MDA-MB-435): 35.3 µM | TGI (MDA-MB-435): > 100 µM | GI50 (MCF7 breast): 26.8 µM | TGI (MCF7 breast): 80.4 µM | GI50 (OVCAR-5 ovarian): 45.6 µM | TGI (OVCAR-5 ovarian): > 100 µM | GI50 (SR leukemia): 12.9 µM | TGI (SR leukemia): 41.9 µM | GI50 (T-47D breast): 46.8 µM | TGI (T-47D breast): > 100 µM | GI50 (MOLT-4 leukemia): 22.5 µM | TGI (MOLT-4 leukemia): 61.9 µM | GI50 (786-0 renal): 44.2 µM | TGI (786-0 renal): > 100 µM | GI50 (A549 NSCLC): 42.9 µM | TGI (A549 NSCLC): > 100 µM | GI50 (MDA-MB-231 breast): 49 µM | TGI (MDA-MB-231 breast): > 100 µM | GI50 (MALME-3M melanoma): > 100 µM | TGI (MALME-3M melanoma): > 100 µM | GI50 (U251 CNS): 17.8 µM | TGI (U251 CNS): 37.7 µM | GI50 (HCC-2998 colon): 17.4 µM | TGI (HCC-2998 colon): 36.4 µM | GI50 (SK-OV-3 ovarian): 35.1 µM | TGI (SK-OV-3 ovarian): > 100 µM | GI50 (A498 renal): 38.1 µM | TGI (A498 renal): > 100 µM | GI50 (NCI-H226 lung): 49.1 µM | TGI (NCI-H226 lung): > 100 µM | GI50 (K-562 leukemia): 5.91 µM | TGI (K-562 leukemia): 26.6 µM | GI50 (SF-539 CNS): 52 µM | TGI (SF-539 CNS): > 100 µM | GI50 (SNB-19 CNS): 47.3 µM | TGI (SNB-19 CNS): > 100 µM | GI50 (CAKI-1 renal): 34.5 µM | TGI (CAKI-1 renal): > 100 µM | GI50 (PC-3 prostate): 52.1 µM | TGI (PC-3 prostate): > 100 µM | GI50 (NCI-H460 lung): 22 µM | TGI (NCI-H460 lung): 50.8 µM | GI50 (UACC-257 melanoma): 59.1 µM | TGI (UACC-257 melanoma): > 100 µM | GI50 (IGROV1 ovarian): 65.9 µM | TGI (IGROV1 ovarian): > 100 µM | GI50 (UO-31 renal): 42.6 µM | TGI (UO-31 renal): > 100 µM | GI50 (HS 578T breast): 48.3 µM | TGI (HS 578T breast): > 100 µM | GI50 (UACC-62 melanoma): 38.6 µM | TGI (UACC-62 melanoma): > 100 µM | GI50 (HOP-92 NSCLC): 50.9 µM | TGI (HOP-92 NSCLC): > 100 µM | GI50 (SK-MEL-5 melanoma): 34.3 µM | TGI (SK-MEL-5 melanoma): > 100 µM | GI50 (SF-295 CNS): 33.6 µM | TGI (SF-295 CNS): > 100 µM | GI50 (SK-MEL-2 melanoma): > 100 µM | TGI (SK-MEL-2 melanoma): > 100 µM | GI50 (EKVX NSCLC): 63.2 µM | TGI (EKVX NSCLC): > 100 µM | GI50 (COLO 205 colon): 41.6 µM | TGI (COLO 205 colon): > 100 µM | GI50 (LOX IMVI melanoma): 25.2 µM | TGI (LOX IMVI melanoma): > 100 µM | GI50 (SNB-75 CNS): 19.6 µM | TGI (SNB-75 CNS): 58.1 µM | GI50 (SF-268 CNS): 18.9 µM | TGI (SF-268 CNS): > 100 µM | GI50 (TK-10 renal): 91 µM | TGI (TK-10 renal): > 100 µM | GI50 (SN12C renal): 28.6 µM | TGI (SN12C renal): 84.8 µM | GI50 (BT-549 breast): 57.4 µM | TGI (BT-549 breast): > 100 µM | GI50 (OVCAR-3 ovarian): 21.8 µM | TGI (OVCAR-3 ovarian): > 100 µM | GI50 (HOP-62 NSCLC): 35.6 µM | TGI (HOP-62 NSCLC): > 100 µM
